According to the supplement of paper PMC4862054:

Experiments:
Experiment in all cases: normalised response (% of control), CellTiter-Glo; higher = more viable cells (100 = DMSO, 0 = benzethonium chloride kill control)
Conditions in all cases: incubation time: 72 h
HCC1143 = tested on: HCC1143
Outline: (§1)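 Each value is the plate-normalised signal at one concentration of the series. Breast cancer cell lines (20 µl suspension) were incubated 72 h in 384-well plates with compound at 5 concentrations in 10-fold steps over a compound-specific 10,000-fold range. CellTox Green and then CellTiter-Glo were read, and each plate was scaled to 0.1 % DMSO (100) and a positive kill control (0).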

MDA-MB-436 = tested on: MDA-MB-436
Outline: as §1

HCC1937 = tested on: HCC1937
Outline: as §1

MDA-MB-468 = tested on: MDA-MB-468
Outline: as §1

CAL-120 = tested on: CAL-120
Outline: as §1

MDA-MB-231 = tested on: MDA-MB-231
Outline: as §1

Hs578T = tested on: Hs578T
Outline: as §1

BT-549 = tested on: BT-549
Outline: as §1

CAL-148 = tested on: CAL-148
Outline: as §1

BT-474 = tested on: BT-474
Outline: as §1

HDQ-P1 = tested on: HDQ-P1
Outline: as §1

MDA-MB-453 = tested on: MDA-MB-453
Outline: as §1

CAL-85-1 = tested on: CAL-85-1
Outline: as §1

CAL-51 = tested on: CAL-51
Outline: as §1

HCC1599 = tested on: HCC1599
Outline: as §1

MCF-10A = tested on: MCF-10A
Outline: as §1

DU-4475 = tested on: DU-4475
Outline: as §1

SK-BR-3 = tested on: SK-BR-3
Outline: as §1

MFM-223 = tested on: MFM-223
Outline: as §1

Structure (SMILES) | normalised response (HCC1143) [%] | normalised response (MDA-MB-436) [%] | normalised response (HCC1937) [%] | normalised response (MDA-MB-468) [%] | normalised response (CAL-120) [%] | normalised response (MDA-MB-231) [%] | normalised response (Hs578T) [%] | normalised response (BT-549) [%] | normalised response (CAL-148) [%] | normalised response (BT-474) [%] | normalised response (HDQ-P1) [%] | normalised response (MDA-MB-453) [%] | normalised response (CAL-85-1) [%] | normalised response (CAL-51) [%] | normalised response (HCC1599) [%] | normalised response (MCF-10A) [%] | normalised response (DU-4475) [%] | normalised response (SK-BR-3) [%] | normalised response (MFM-223) [%]
O=C(/C=C/c1cccc(S(=O)(=O)Nc2ccccc2)c1)NO [Belinostat] (1000 nM) | 47.3 | 51.9 | 69.9 | 31.8 | 39.8 | 36 | 50.6 | 59 | 28.5 | 23.1 | 68.8 | 14.4 | 44.5 | 31.7 | 44.5 | 55.6 | 23.1 | 15.7 | 34.2
O=C(Nc1cccnc1)N1CCC(Cc2cccc(Oc3ccc(C(F)(F)F)cn3)c2)CC1 [PF-3845] (1000 nM) | 106 | 104 | 99 | 95.1 | 99 | 106 | 104 | 98.3 | 99.4 | 99.2 | 98.1 | 100 | 95 | 98.3 | 104 | 111 | 98.3 | 101 | 109
Cc1ccc(NC(=O)c2ccc(CN3CCN(C)CC3)cc2)cc1Nc1nc(-c2cccnc2)cs1 [Masitinib] (1000 nM) | 99 | 105 | 101 | 89.9 | 95.5 | 105 | 102 | 92.9 | 103 | 104 | 98.8 | 89.7 | 111 | 80.5 | 106 | 105 | 103 | 105 | 103
CCc1c2c(nc3ccc(OC(=O)N4CCC(N5CCCCC5)CC4)cc13)-c1cc3c(c(=O)n1C2)COC(=O)[C@]3(O)CC [Irinotecan] (1000 nM) | 88.1 | 64.5 | 91.8 | 82 | 83.7 | 98.1 | 101 | 78.2 | 66.3 | 91 | 95.5 | 152 | 104 | 96.6 | 109 | 88.3 | 82.1 | 78.8 | 104
CN(C)c1nc(N(C)C)nc(N(C)C)n1 [Altretamine] (1000 nM) | 103 | 99.3 | 99.4 | 107 | 99.5 | 100 | 110 | 103 | 95.2 | 101 | 105 | 115 | 102 | 108 | 118 | 103 | 98.9 | 107 | 103
N#Cc1ccc(COC[C@H]2O[C@@H](n3c(NCc4ccc(Cl)c(Cl)c4)nc4c(N)ncnc43)[C@H](O)[C@@H]2O)cc1 (1000 nM) | 97.2 | 109 | 86.9 | 93.7 | 101 | 89.8 | 86.9 | 89.9 | 98.5 | 81.8 | 98.7 | 98.4 | 107 | 110 | 116 | 96.6 | 86 | 95.3 | 98.9
c1ccc2c(CCNc3ccc(Nc4ccncc4)cc3)c[nH]c2c1 [Serdemetan] (1000 nM) | 83.8 | 89.5 | 88.5 | 77.8 | 93.7 | 82.4 | 104 | 84.2 | 71.1 | 76.4 | 90 | 110 | 125 | 24.4 | 114 | 86.2 | 90.3 | 79.6 | 97
NC(=O)c1ccc(I)c([N+](=O)[O-])c1 [Iniparib] (1000 nM) | 87.7 | 88.2 | 97.7 | 83.8 | 93.2 | 90 | 94.6 | 101 | 83.3 | 90 | 97 | 89.2 | 94.5 | 126 | 105 | 82 | 92.3 | 78 | 81.3
COCC[n+]1c2c(n(Cc3cnccn3)c1C)C(=O)c1ccccc1C2=O [YM155] (1000 nM) | 0.6 | -0.32 | 0.41 | -0.57 | 3.05 | -0.22 | 25.6 | -0.05 | -0.23 | 0.29 | -0.17 | 9.91 | -0.48 | -0.05 | -0.01 | -0.7 | 1.45 | -0.16 | 10.7
COCC1(CO)C(=O)C2CCN1CC2 (stereo not given) [Prima-1 Met] (1000 nM) | 105 | 106 | 92.2 | 105 | 99.3 | 104 | 101 | 96.8 | 101 | 102 | 96.3 | 109 | 105 | 108 | 106 | 97.8 | 105 | 101 | 103
